Data published in patent US8716325B2, “Treatment of cachexia” (PsiOxus Therapeutics Limited, priority 2006, dated 2014).
Where two headings read alike, the source gives them in different places.

Legend:
[1] = cited from earlier work
[2] = system: Ascites hepatoma Yoshida AH-130 cells; assay: Yoshida AH-130 ascites hepatoma rat model of cancer cachexia; type: in vivo, male Wistar rats; settings: for Locomotor activity 24 h day 11: Supermex system, marker for fatigue; for Locomotor activity 24 h day 11 / Food intake day 11 / Lean tissue gain without tumour / Lean tissue without tumour / Weight gain without tumour / Body weight without tumour: mean±SEM; for Lean tissue gain without tumour / Lean tissue without tumour / Weight gain without tumour / Body weight without tumour: end of study; for Body weight without tumour: oral gavage, twice daily
Excerpt: Ascites hepatoma Yoshida AH-130 cells (10^8 cells) are inoculated into 180-200 g male Wistar rats. Alternatively animals receive saline injection only (sham). The animals are housed in groups of three. The day after inoculation animals are randomized into various groups and then receive twice daily treatment with either placebo or compounds over a period of up to 17 days. The primary endpoints of the study include assessment of body weight, body composition (with and without tumour) and survival. Organ weight is assessed at the end of the study (or after death) as a secondary endpoint. In addition locomotor activity is used to assess fatigue using Supermex system (Muromachi, Tokyo, Japan) over a period of 24 hours in cages where the animals are placed individually (type 3 cage); missing data (if due to death) are imputed as ‘zero’ activity; a sensitivity analysis without imputed points is additionally performed. Food intake is also measured. Results are expressed as mean±SEM at the end of the study except where stated otherwise. Doses represent total daily dose given by oral gavage.

5-HT1a = biological target: T1, 5-HT1a (Rattus norvegicus, UniProt P19327); settings: functional tests, Eur J Pharmacol. 1986; 128 (3): 295-8; cited from earlier work
T1 construct: suppressant effects of 5-HT1a agonists on dorsal raphe neuronal firing; host or cells: dorsal raphe neurons (endogenous receptor)
T1 sequence (P19327 1-422): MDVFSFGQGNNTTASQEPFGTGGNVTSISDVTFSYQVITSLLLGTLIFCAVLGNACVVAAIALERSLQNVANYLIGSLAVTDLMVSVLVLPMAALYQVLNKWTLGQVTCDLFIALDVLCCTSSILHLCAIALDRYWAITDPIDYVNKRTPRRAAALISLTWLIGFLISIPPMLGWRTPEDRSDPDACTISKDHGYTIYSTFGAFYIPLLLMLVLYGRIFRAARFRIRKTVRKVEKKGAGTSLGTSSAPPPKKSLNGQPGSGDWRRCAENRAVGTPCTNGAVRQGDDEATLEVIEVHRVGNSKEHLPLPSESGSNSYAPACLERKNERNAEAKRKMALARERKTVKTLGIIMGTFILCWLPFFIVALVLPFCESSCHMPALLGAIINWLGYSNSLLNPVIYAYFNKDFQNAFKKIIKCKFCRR

[3] = animal model of cancer cachexia, summary in words

CC(C)NCC(O)COc1cccc2[nH]ccc12 (racemic) [racemic pindolol, pindolol, reference compound]
Effect on blood pressure ([1]; healthy subjects, similar dose of (S)-pindolol and racemic pindolol): reducing diastolic blood pressure

CC(C)NCC(O)COc1ccc(COCCOC(C)C)cc1 (centres unmarked) [Bisoprolol, reference compound]
Locomotor activity 24 h day 11 ([2]; 5 mg/kg/d oral gavage): 315 ± 58
Food intake day 11 ([2]; 5 mg/kg/d oral gavage): 16.00 ± 3.07 g
Lean tissue gain without tumour ([2]; 5 mg/kg/d oral gavage): -1.38 ± 11.31 g
Lean tissue without tumour ([2]; 5 mg/kg/d oral gavage): 158.10 ± 11.86 g
Weight gain without tumour ([2]; 5 mg/kg/d oral gavage): -5.46 ± 15.95 g
Body weight without tumour ([2]; 5 mg/kg/d total daily dose): 202.0 ± 16.04 g
Locomotor activity 24 h day 11 ([2]; 50 mg/kg/d oral gavage): 277 ± 39
Food intake day 11 ([2]; 50 mg/kg/d oral gavage): 9.94 ± 2.10 g
Lean tissue gain without tumour ([2]; 50 mg/kg/d oral gavage): -28.96 ± 6.64 g
Lean tissue without tumour ([2]; 50 mg/kg/d oral gavage): 124.77 ± 7.17 g
Weight gain without tumour ([2]; 50 mg/kg/d oral gavage): -30.30 ± 10.95 g
Body weight without tumour ([2]; 50 mg/kg/d total daily dose): 159.18 ± 9.64 g
Effect on locomotor activity, as a marker for fatigue [2, 3]: neutral to negative

CC(C)NC[C@@H](O)COc1cccc2ccccc12 [(R)-propranolol, reference compound]
Block of the suppressant effects of 5-HT1a agonists on dorsal raphe neuronal firing (5-HT1a): not

CC(C)NC[C@H](O)COc1cccc2ccccc12 [(S)-propranolol, (S)-1-isopropylamino-3-(1-naphthyloxy)-2-propanol]
Block of the suppressant effects of 5-HT1a agonists on dorsal raphe neuronal firing (5-HT1a): blocked the suppressant effects

CC(C)NC[C@H](O)COc1cccc2[nH]ccc12 [S-pindolol, S-(−)-1-(1H-indol-4-yloxy)-3-(1-methylethylamino)propan-2-ol]
Effect on blood pressure ([1]; in vivo): no alteration in blood pressure in a majority of healthy subjects
Locomotor activity 24 h day 11 ([2]; 0.3 mg/kg/d oral gavage): 361 ± 38
Food intake day 11 ([2]; 0.3 mg/kg/d oral gavage): 7.75 ± 5.22 g
Lean tissue gain without tumour ([2]; 0.3 mg/kg/d oral gavage): -1.17 ± 15.84 g
Lean tissue without tumour ([2]; 0.3 mg/kg/d oral gavage): 152.37 ± 15.47 g
Weight gain without tumour ([2]; 0.3 mg/kg/d oral gavage): -8.50 ± 19.19 g
Body weight without tumour ([2]; 0.3 mg/kg/d total daily dose): 178.89 ± 17.04 g
Locomotor activity 24 h day 11 ([2]; 3 mg/kg/d oral gavage): 368 ± 50
Food intake day 11 ([2]; 3 mg/kg/d oral gavage): 15.33 ± 3.84 g
Lean tissue gain without tumour ([2]; 3 mg/kg/d oral gavage): 18.90 ± 16.06 g
Lean tissue without tumour ([2]; 3 mg/kg/d oral gavage): 171.99 ± 15.92 g
Weight gain without tumour ([2]; 3 mg/kg/d oral gavage): 17.30 ± 20.08 g
Body weight without tumour ([2]; 3 mg/kg/d total daily dose): 215.10 ± 19.89 g
Effect on cachectic weight loss [2, 3]: able to reduce cachectic weight loss
Effect on locomotor activity, as a marker for fatigue [2, 3]: positive effect on locomotor activity
Effect on tumour weight [2, 3]: reducing the tumour weight
